Assay results from patent US20230190754A1, “Therapeutic combinations for the treatment of Progressive Fibrosing interstitial lung diseases” (Boehringer Ingelheim International GmbH, priority 2021, published 2023).
Marks after values point to notes of the source that are not given here.

System: IPF patients
Assay: Phase II clinical trial in IPF patients: Treatment Emergent Adverse Events (safety/tolerability), up to 13 weeks
Conditions: 18 mg b.i.d.
[1] = AF-group (antifibrotic background)
[2] = AF-group (antifibrotic background), listed as Compound of Formula III
[3] = AF-group (antifibrotic background), listed as active agent
[4] = AF-group, nintedanib background medication sub-group
[5] = AF-group, nintedanib background
[6] = AF-group, nintedanib background, listed as Compound of Formula III
[7] = AF-group, nintedanib background, listed as active agent
[8] = AF-group, nintedanib background, listed as compound of formula III
[9] = AF-group, nintedanib background, males
[10] = AF-group, pirfenidone background medication sub-group
[11] = AF-group, pirfenidone background

## [O-][S@+]1CCc2nc(N3CCC(c4ncc(Cl)cn4)CC3)nc(NC3(CO)CCC3)c21 [Comp. of form. III]
[1]
  SAE: Condition aggravated, patients n: 2
  SAE: General disorders and administration side conditions, bracketed fatal event [ ]*, patients %: (2.1)]* %
  SAE: General disorders and administration side conditions, bracketed fatal event [ ]*, patients n: [1
  SAE: General disorders and administration side conditions, patients %: (4.1) %
  SAE: General disorders and administration side conditions, patients n: 2
  SAE: Nervous system disorders, patients %: (2.0) %
  SAE: Nervous system disorders, patients n: 1
  SAE: Peripheral nerve paresis, patients %: (2.0) %
  SAE: Peripheral nerve paresis, patients n: 1
  SAE: Vascular disorders, patients %: (2.0) %
  SAE: Vascular disorders, patients n: 1
  SAE: Vasculitis (fatal event), patients %: (2.0)* %
  SAE: Vasculitis (fatal event), patients n: 1
  Serious AEs (patients with ≥1 SAE), patients %: (6.1) %
  Serious AEs (patients with ≥1 SAE), patients n: 3
  Severe AEs, patients %: (4.1) %
  Severe AEs, patients n: 2
AF-group (antifibrotic background), listed as Comp. of Form. III
  AE: Diarrhoea, patients %: 30.6%
[2]
  AE: Diarrhoea, patients %: (30.6) %
  AE: Gastrointestinal disorders, patients %: (36.7) %
  Any AE, patients %: (73.5) %
[3]
  AE: Diarrhoea, patients %: 30.6%
  Any AE, patients %: 73.5%
[4]
  AE: Diarrhoea, patients %: 46.2%
  AE: gastrointestinal disorder, patients %: 46.2%
[5]
  Dyspepsia leading to discontinuation of trial treatment, patients %: (3.8) %
  Dyspepsia leading to discontinuation of trial treatment, patients n: 1
  Gastrointestinal disorders leading to discontinuation of trial treatment, patients n: 4
  Patients with AEs leading to discontinuation of the trial drug, %: 26.9%
  Patients with any AE, %: 80.8%
  Patients with investigator defined drug related AEs, %: 46.2%
  Patients with other significant AEs, %: 26.9%
  Patients with pre-specified AEs of special interest, %: 0%
  Patients with serious AEs, %: 3.8%
  Patients with severe AEs, %: 3.8%
  Serious AEs: Congenital anomaly/birth defect, %: 0%
  Serious AEs: Immediately life threatening, %: 0%
  Serious AEs: Other comparable medical criteria, %: 0%
  Serious AEs: Persistent or significant disability, %: 0%
  Serious AEs: Requires or prolongs hospitalization, %: 3.8%
  Serious AEs: Results in Death, %: 0%
[6]
  Diarrhoea leading to discontinuation of trial treatment, patients %: (11.5) %
  Diarrhoea leading to discontinuation of trial treatment, patients n: 3
  Gastrointestinal disorders leading to discontinuation of trial treatment, patients %: (15.4) %
[7]
  Diarrhoea leading to discontinuation of trial treatment, patients n: 3
  Gastrointestinal disorders leading to discontinuation of trial treatment, patients %: 15.4%
[8]
  Diarrhoea leading to discontinuation of trial treatment, patients %: 11.5%
  Gastrointestinal disorders leading to discontinuation of trial treatment, patients %: 15.4%
[9]
  Moderate cases of diarrhoea, %: 2.1%
  Severe case of diarrhoea, %: 1.0%
[10]
  AE: Diarrhoea, patients %: 13.0%
  AE: gastrointestinal disorder, patients %: 26.1%
[11]
  Patients with AEs leading to discontinuation of the trial drug, %: 13.0%
  Patients with any AE, %: 65.2%
  Patients with investigator defined drug related AEs, %: 26.1%
  Patients with other significant AEs, %: 4.3%
  Patients with pre-specified AEs of special interest, %: 4.3%
  Patients with serious AEs, %: 8.7%
  Patients with severe AEs, %: 4.3%
  Serious AEs: Congenital anomaly/birth defect, %: 0%
  Serious AEs: Immediately life threatening, %: 0%
  Serious AEs: Other comparable medical criteria, %: 0%
  Serious AEs: Persistent or significant disability, %: 0%
  Serious AEs: Requires or prolongs hospitalization, %: 8.7%
  Serious AEs: Results in Death, %: 4.3%
AF-group, pirfenidone background, listed as active agent
  Gastrointestinal disorders leading to discontinuation of trial treatment, patients (in words): not a single patient
AF-group, pirfenidone background, listed as compound of formula III
  Gastrointestinal disorders leading to discontinuation of trial treatment, patients (in words): no discontinuations of the trial treatment at all
Non-AF+AF total
  AE resulting in death, patients %: (2.1) %
  AE resulting in death, patients n: 2
  AE: Abdominal pain, patients %: (2.1) %
  AE: Abdominal pain, patients n: 2
  AE: Arthralgia, patients %: (2.1) %
  AE: Arthralgia, patients n: 2
  AE: Asthenia, patients %: (4.1) %
  AE: Asthenia, patients n: 4
  AE: Bronchitis, patients %: (2.1) %
  AE: Bronchitis, patients n: 2
  AE: Condition aggravated, patients %: (2.1) %
  AE: Condition aggravated, patients n: 2
  AE: Constipation, patients %: (2.1) %
  AE: Constipation, patients n: 2
  AE: Cough, patients %: (7.2) %
  AE: Cough, patients n: 7
  AE: Decreased appetite, patients %: (3.1) %
  AE: Decreased appetite, patients n: 3
  AE: Diarrhoea, patients %: (23.7) %
  AE: Diarrhoea, patients n: 23
  AE: Dizziness, patients %: (2.1) %
  AE: Dizziness, patients n: 2
  AE: Dyspepsia, patients %: (5.2) %
  AE: Dyspepsia, patients n: 5
  AE: Dyspnoea, patients %: (3.1) %
  AE: Dyspnoea, patients n: 3
  AE: Fatigue, patients %: (3.1) %
  AE: Fatigue, patients n: 3
  AE: Flatulence, patients %: (5.2) %
  AE: Flatulence, patients n: 5
  AE: Gastrointestinal disorders, patients %: (32.0) %
  AE: Gastrointestinal disorders, patients n: 31
  AE: General disorders and administration site conditions, patients %: (16.5) %
  AE: General disorders and administration site conditions, patients n: 16
  AE: Headache, patients %: (6.2) %
  AE: Headache, patients n: 6
  AE: Infections and infestations, patients %: (14.4) %
  AE: Infections and infestations, patients n: 14
  AE: Investigations, patients %: (15.5) %
  AE: Investigations, patients n: 15
  AE: Metabolism and nutrition disorders, patients %: (4.1) %
